From ChEMBL document CHEMBL3045233, “Insecticidal and neuroblocking potencies of variants of the imidazolidine moiety of imidacloprid-related neonicotinoids and the relationship to partition coefficient and charge density on the pharmacophore” (J Agric Food Chem, 2007)

Columns and labels:
[1] = target: T1, Nicotinic acetylcholine receptor alpha8 subunit (Periplaneta americana) (UniProt H6TY12); assay: Neuroblocking activity in Periplaneta americana (American cockroach) nicotinic acetylcholine receptor in abdominal fifth and sixth ganglia nerve assessed as neuroblocking concentration by neurophysiological test
T1 sequence (whole entry): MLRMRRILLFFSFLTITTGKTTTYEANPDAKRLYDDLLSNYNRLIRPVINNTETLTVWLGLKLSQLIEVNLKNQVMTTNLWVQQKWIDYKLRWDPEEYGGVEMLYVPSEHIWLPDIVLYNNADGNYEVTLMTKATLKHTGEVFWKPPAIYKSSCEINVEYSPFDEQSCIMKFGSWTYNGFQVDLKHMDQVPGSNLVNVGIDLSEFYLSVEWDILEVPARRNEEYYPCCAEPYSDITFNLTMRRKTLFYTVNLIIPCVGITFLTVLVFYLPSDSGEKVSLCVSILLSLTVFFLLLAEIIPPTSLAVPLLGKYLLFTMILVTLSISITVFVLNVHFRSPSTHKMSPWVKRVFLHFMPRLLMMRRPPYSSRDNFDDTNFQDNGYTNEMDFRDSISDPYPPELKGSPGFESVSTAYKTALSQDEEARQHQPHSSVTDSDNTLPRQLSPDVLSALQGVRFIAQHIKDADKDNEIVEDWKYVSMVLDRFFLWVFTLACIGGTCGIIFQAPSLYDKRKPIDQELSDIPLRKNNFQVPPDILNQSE

Periplaneta americana = assay: Toxic effect in Periplaneta americana (American cockroach) assessed as paralyzed insects after 24 hr of abdomen compound injection by insecticidal assay; format: functional
[2] = Hydrophobicity, log P of the compound in octanol-water by shaking-flask method; format: physicochemical

Structure (SMILES) | log(1/BC) [1] | log(1/MLD) (Periplaneta americana) | logP [2]
O=[N+]([O-])/N=c1\ccccn1Cc1cnc(Cl)s1 | 5.75 | 8.92 | 0.67
O=[N+]([O-])/N=c1\sccn1Cc1cnc(Cl)s1 | 5.79 | 7.85 | 0.96
O=[N+]([O-])/C=C1\NCCN1Cc1cnc(Cl)s1 | 5.73 | 9.34 | 0.03
O=[N+]([O-])/C=C1\NCCN1Cc1ccc(Cl)nc1 | 5.02 | 9.19 | -0.18
O=[N+]([O-])/N=C1\NCCCN1Cc1ccc(Cl)nc1 | 5.35 | 8.22 | 0.57
CN1CCN(Cc2ccc(Cl)nc2)/C1=C/[N+](=O)[O-] | 3.84 | 7.77 | -0.84
O=[N+]([O-])Nc1nccn1Cc1ccc(Cl)nc1 [DEHYDROIMIDACLOPRID] | 4.31 | 7.72 | 0.33
O=[N+]([O-])/N=c1\sccn1Cc1ccc(Cl)nc1 | 5.68 | 8.85 | 0.53
O=[N+]([O-])/N=C1\SCCN1Cc1cnc(Cl)s1 | 6 | 7.42 | 0.8
O=[N+]([O-])/C=C1\SCCN1Cc1ccc(Cl)nc1 | 6.19 | 9.76 | 0.47
O=[N+]([O-])/N=c1\ccccn1Cc1ccc(Cl)nc1 | 5.09 | 8.88 | 0.51
CN1CCN(Cc2ccc(Cl)nc2)/C1=N/[N+](=O)[O-] | 3.81 | 8.53 | -0.07
O=[N+]([O-])NC1=NCCN1Cc1ccc(Cl)nc1 [IMIDACLOPRID] | – | – | 0.53
O=[N+]([O-])/N=c1\[nH]ccn1Cc1cnc(Cl)s1 | 4.61 | 8.12 | 0.27
O=[N+]([O-])/C=C1\CCCN1Cc1cnc(Cl)s1 | 6.31 | 8.96 | –
O=[N+]([O-])/N=C1\NCCN1Cc1ccc(Cl)nc1 [IMIDACLOPRID] | 5.64 | 8.96 | –
O=[N+]([O-])/C=C1\CCCN1Cc1ccc(Cl)nc1 | 6.43 | 9.84 | 0.45
O=[N+]([O-])/N=C1\NCCN1Cc1cnc(Cl)s1 [IMIDACLOTHIZ] | 5.97 | 8.42 | 0.61
